The text below walks through data of patent US11505575B2, “Cyclic polypeptides for PCSK9 inhibition” (Merck Sharp & Dohme LLC, priority 2018, dated 2022).

*1 amine or outer side, *2 acyl side, *3 side chain or, on linkers, in order; H or OH if unused. Where a SMILES comes first, the peptide text is derived from it. Bridges are numbered along the chain shown (N, C = ends). [ ]: non-standard residue; d: D form. The star is where a group is joined. ξ: configuration not given here. Phe(3-CF3) = N[C@@H](Cc1cccc(C(F)(F)F)c1)C(=O)O; Trp(5-F) = N[C@@H](Cc1c[nH]c2ccc(F)cc12)C(=O)O; Trp(7-aza) = N[C@@H](Cc1c[nH]c2ncccc12)C(=O)O; pY = N[C@@H](Cc1ccc(OP(=O)(O)O)cc1)C(=O)O; pT = C[C@@H](OP(=O)(O)O)[C@H](N)C(=O)O; mXylylene = c1cc(C[*:1])cc(C[*:2])c1; pS = N[C@@H](COP(=O)(O)O)C(=O)O; aThr = C[C@H](O)[C@H](N)C(=O)O; Tle = CC(C)(C)[C@H](N)C(=O)O; αMeV = CC(C)[C@](C)(N)C(=O)O; ξαMeS = CC(N)(CO)C(=O)O; Aib = CC(C)(N)C(=O)O; Mpa = O=C(O)CCS; X5 = COCC*

Assay type in all cases: binding
The target in assay [1] is human PCSK9 / human LDLR EGFa domain interaction (Homo sapiens, UniProt Q8NBP7). In words: TR-FRET assay of inhibition of the PCSK9-LDLR protein-protein interaction. The settings on record: 20 nM biotinylated human PCSK9 + 20 nM his-tagged human LDLR EGFa domain, 2 hours room temperature. The method in brief:
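Biotinylated human PCSK9 (20 nM) and His-tagged human LDLR EGFa domain (20 nM) incubated with Ulight-streptavidin and Eu-anti-His (5 nM each), 2 h at room temperature, in HEPES pH buffer with 5 mM CaCl2. TR-FRET read-out; IC50 from 4-parameter fit of dose-response.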
On the technique in general: In TR-FRET formats the signal depends on donor and acceptor labels being close together.

For assay [2], the target named is T1, PCSK9 (Homo sapiens, UniProt Q8NBP7).
T1 construct: biotin (biotinylated)
T1 sequence (Q8NBP7 153-692): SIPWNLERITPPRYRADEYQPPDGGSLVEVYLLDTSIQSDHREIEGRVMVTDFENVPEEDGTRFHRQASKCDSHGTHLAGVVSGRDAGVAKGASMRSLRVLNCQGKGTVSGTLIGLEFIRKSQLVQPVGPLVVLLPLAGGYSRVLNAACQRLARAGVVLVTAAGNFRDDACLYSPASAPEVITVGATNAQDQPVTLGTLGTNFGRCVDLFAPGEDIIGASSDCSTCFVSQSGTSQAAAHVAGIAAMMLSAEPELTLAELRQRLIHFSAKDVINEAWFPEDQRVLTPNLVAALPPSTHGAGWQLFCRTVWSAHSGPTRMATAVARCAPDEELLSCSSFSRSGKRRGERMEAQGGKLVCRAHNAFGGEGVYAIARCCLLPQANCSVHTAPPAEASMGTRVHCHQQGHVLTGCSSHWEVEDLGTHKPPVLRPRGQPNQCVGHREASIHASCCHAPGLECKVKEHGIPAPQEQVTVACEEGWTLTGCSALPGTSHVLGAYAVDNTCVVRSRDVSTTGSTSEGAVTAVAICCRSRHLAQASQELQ
In words: PCSK9 Alexa FRET Standard assay (displacement of AlexaFluor647-tagged cyclic peptide Reagent A). The settings on record: 0.5 nM PCSK9, 20 nM AF cyclic peptide Reagent A. The procedure: A solution containing 1 nM biotinylated PCSK9+2.5 nM Lance Streptavidin Europium (Strep-Eu) was made in 50 mM HEPES pH 7.4, 0.15 M NaCl, 5 mM CaCl2, 0.01% BSA, and 0.01% Surfactant P20. A separate solution containing 40 nM of the AlexaFluor tagged cyclic peptide was made in the same buffer system. An Echo was used to transfer 0.750 ul of compound to an assay plate followed by the addition of 15 ul of PCSK9+Stept-Eu and 15 ul of AF peptide. The final assay volume was 30.750 ul containing 0.5 nM PCSK9, 1.25 nM Strep-Eu, and 20 nM AF cyclic peptide. The reaction was incubated at room temperature for at least two hours prior to fluorescence measurements using an Envision Multilabel Reader. IC50 values were determined by fitting data to a sigmoidal dose-response curve using nonlinear regression. Ki was then calculated from the IC50 and the KD of AF cyclic peptide. Counts (B-counts) of the europium-labeled PCSK9 were followed to observe if compounds were […]. A fall off of the B-counts likely indicated a false positive of inhibition. Data from this procedure was reported as “A=‘numerical value’ (nanomolar)”

Assay [3] has as its target T1, PCSK9. In words: PCSK9 Alexa FRET Plus assay (displacement of AlexaFluor647-tagged cyclic peptide Reagent B). To be noted: 0.5 nM PCSK9, 960 nM AF cyclic peptide Reagent B. How it is done:
A solution containing 1 nM biotinylated PCSK9+2.5 nM Lance Streptavidin Europium (Strep-Eu) was made in 50 mM HEPES pH 7.4, 0.15 M NaCl, 5 mM CaCl2, 0.01% BSA, and 0.01% Surfactant P20. A separate solution containing 1920 nM of the AlexaFluor tagged cyclic peptide was made in the same buffer system. An Echo was used to transfer 0.075 ul of compound plus 0.675 ul of DMSO to each well of an assay plate followed by the addition of 15 ul of PCSK9+Stept-Eu and 15 ul of AF peptide. The final assay volume was 30.750 ul containing 0.5 nM PCSK9, 1.25 nM Strep-Eu, and 960 nM AF cyclic peptide. The reaction was incubated at room temperature for at least two hours prior to fluorescence measurements using an Envision Multilabel Reader. IC50 values were determined by fitting data to a sigmoidal dose-response curve using nonlinear regression. Ki was then calculated from the IC50 and the KD of AF cyclic peptide. Counts (B-counts) of the europium-labeled PCSK9 were followed to observe if compounds were adversely affecting PCSK9. A fall off of the B-counts likely indicated a false positive of inhibition. Data from this procedure was reported as “P=‘numerical value’ (nanomolar)”

human PCSK9 / human LDLR EGFa domain interaction, sequence (Q8NBP7 153-692): as above
human PCSK9 / human LDLR EGFa domain interaction, sequence (Q8NBP7 31-152 partner limits assumed): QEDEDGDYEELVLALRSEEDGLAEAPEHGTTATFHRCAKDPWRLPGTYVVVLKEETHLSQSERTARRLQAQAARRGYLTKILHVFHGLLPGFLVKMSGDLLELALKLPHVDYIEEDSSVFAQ

The term IC50 denotes the concentration that inhibits the measured activity by half. `CC1O[C@@H](C)[C@@H]2NC(=O)[C@@]1(C)NC(=O)[C@H](Cc1ccc(OP(=O)(O)O)cc1)NC(=O)[C@H](C)NC(=O)C(C)(C)NC(=O)[C@H](Cc1c[nH]c3ncccc13)NC(=O)[C@H]([C@@H](C)O)NC(=O)[C@@H]1CCCN1C(=O)[C@H](Cc1ccc(O)cc1)NC(=O)[C@H](C(C)(C)C)NC(=O)CCSCc1cccc(c1)CSC[C@@H](C(N)=O)NC2=O` (stereo partly shown) [Compound 014]: the IC50 (in assay [1]; at PCSK9 [2]; at PCSK9 [3]) was 1 to 100 nM each time.

Turning to `CC(C)[C@]1(C)NC(=O)[C@H](Cc2ccc(O)cc2)NC(=O)[C@H](C)NC(=O)C(C)(C)NC(=O)[C@H](Cc2c[nH]c3ncccc23)NC(=O)[C@H]([C@@H](C)O)NC(=O)[C@@H]2CCCN2C(=O)[C@H](Cc2ccc(O)cc2)NC(=O)[C@H](C(C)(C)C)NC(=O)CCSCc2cccc(c2)CSC[C@@H](C(N)=O)NC(=O)[C@H]([C@@H](C)OP(=O)(O)O)NC1=O` [Compound 015] ([Mpa][Tle]YPT[Trp(7-aza)][Aib]AY[αMeV][pT]C-NH2; linker 1-12 via mXylylene), the half-inhibitory concentration (IC50) (in assay [1]; on PCSK9 [2]; at PCSK9 [3]) was 1 to 100 nM in each case.

As for `CC(C)[C@]1(C)NC(=O)[C@H](Cc2ccc(O)cc2)NC(=O)[C@H](C)NC(=O)C(C)(C)NC(=O)[C@H](Cc2c[nH]c3ncccc23)NC(=O)[C@H]([C@@H](C)O)NC(=O)[C@@H]2CCCN2C(=O)[C@H](Cc2ccc(O)cc2)NC(=O)[C@H](C(C)(C)C)NC(=O)CCSCc2cccc(c2)CSC[C@@H](C(N)=O)NC(=O)[C@H](COP(=O)(O)O)NC1=O` [Compound 016] ([Mpa][Tle]YPT[Trp(7-aza)][Aib]AY[αMeV][pS]C-NH2; linker 1-12 via mXylylene), the IC50 (in assay [1]; on PCSK9 [2]; at PCSK9 [3]) was 1 to 100 nM throughout.

Turning to `COCCOCC1(C)NC(=O)[C@H](Cc2c[nH]c3ncccc23)NC(=O)[C@H]([C@@H](C)O)NC(=O)[C@@H]2CCCN2C(=O)[C@H](Cc2ccc(O)cc2)NC(=O)[C@H](C(C)(C)C)NC(=O)[C@@H](NC(C)=O)CSCc2cccc(c2)CSC[C@H](C(N)=O)NC(=O)[C@H]([C@@H](C)O)NC(=O)[C@](C)(C(C)C)NC(=O)[C@H](Cc2ccc(O)cc2)NC(=O)[C@H](C)NC1=O` (stereo partly shown) [Compound 036] (Ac-C[Tle]YPT[Trp(7-aza)][ξαMeS](X5)AY[αMeV]T[dC]-NH2; linker 1-12 via mXylylene), the half-maximal inhibitory concentration (IC50) on PCSK9 [2] and on PCSK9 [3] was 1 to 100 nM in each case.

For `CC(=O)N[C@H]1CSCc2cccc(c2)CSC[C@H](C(N)=O)NC(=O)[C@H]([C@H](C)O)NC(=O)[C@](C)(C(C)C)NC(=O)[C@H](Cc2ccc(OP(=O)(O)O)cc2)NC(=O)[C@H](C)NC(=O)C(C)(C)NC(=O)[C@H](Cc2c[nH]c3ncccc23)NC(=O)[C@H]([C@@H](C)O)NC(=O)[C@@H]2CCCN2C(=O)[C@H](Cc2ccc(O)cc2)NC(=O)[C@H](C(C)(C)C)NC1=O` [Compound 039] (Ac-C[Tle]YPT[Trp(7-aza)][Aib]A[pY][αMeV][aThr][dC]-NH2; linker 1-12 via mXylylene), the results for the IC50 on PCSK9 [2] and on PCSK9 [3] were 100 to 1000 nM and 1 to 100 nM, respectively.

Turning to `CC(=O)N[C@H]1CSCc2cccc(c2)CSC[C@H](C(N)=O)NC(=O)[C@H]([C@H](C)O)NC(=O)[C@](C)(C(C)C)NC(=O)[C@H](Cc2ccc(O)cc2)NC(=O)[C@H](C)NC(=O)C(C)(C)NC(=O)[C@H](Cc2c[nH]c3ncccc23)NC(=O)[C@H]([C@@H](C)O)NC(=O)[C@@H]2CCCN2C(=O)[C@H](Cc2ccccc2)NC(=O)[C@H](C(C)(C)C)NC1=O` [Compound 040] (Ac-C[Tle]FPT[Trp(7-aza)][Aib]AY[αMeV][aThr][dC]-NH2; linker 1-12 via mXylylene), the IC50 on PCSK9 [2] and at PCSK9 [3] was 1 to 100 nM in each case.

Regarding `CC(=O)N[C@H]1CSCc2cccc(c2)CSC[C@H](C(N)=O)NC(=O)[C@H]([C@H](C)O)NC(=O)[C@](C)(C(C)C)NC(=O)[C@H](Cc2ccc(O)cc2)NC(=O)[C@H](C)NC(=O)C(C)(C)NC(=O)[C@H](Cc2c[nH]c3ncccc23)NC(=O)[C@H]([C@@H](C)O)NC(=O)[C@@H]2CCCN2C(=O)[C@H](Cc2cccc(C(F)(F)F)c2)NC(=O)[C@H](C(C)(C)C)NC1=O` [Compound 041] (Ac-C[Tle][Phe(3-CF3)]PT[Trp(7-aza)][Aib]AY[αMeV][aThr][dC]-NH2; linker 1-12 via mXylylene), the IC50 on PCSK9 [2] lay in the range of 21000 to 50000 nM; at PCSK9 [3], 500 to 5000 nM.

Turning to `CC(=O)N[C@H]1CSCc2cccc(c2)CSC[C@H](C(N)=O)NC(=O)[C@H]([C@H](C)O)NC(=O)[C@](C)(C(C)C)NC(=O)[C@H](Cc2ccc(O)cc2)NC(=O)[C@H](C)NC(=O)C(C)(C)NC(=O)[C@H](Cc2c[nH]c3ncccc23)NC(=O)[C@H]([C@@H](C)O)NC(=O)[C@@H]2CCCN2C(=O)[C@H](Cc2c[nH]c3ccc(F)cc23)NC(=O)[C@H](C(C)(C)C)NC1=O` [Compound 042] (Ac-C[Tle][Trp(5-F)]PT[Trp(7-aza)][Aib]AY[αMeV][aThr][dC]-NH2; linker 1-12 via mXylylene), the half-maximal inhibitory concentration (IC50) at PCSK9 [2] and at PCSK9 [3] was 1 to 100 nM in each case.
